Source: the NIST ThermoML archive (doi:10.1016/j.fluid.2017.08.005)
± gives the expanded uncertainty stated by the source.

Conditions: Liquid, Closed cell (Static) method

vapor or sublimation pressure (273.15 K)	Structure (SMILES)	vapor or sublimation pressure (293.15 K)	vapor or sublimation pressure (313.15 K)	vapor or sublimation pressure (333.15 K)	vapor or sublimation pressure (353.15 K)
3487 ± 13 kPa	O=C=O [carbon dioxide]				
4094 ± 16 kPa	C=C [ethene]				

Structure (SMILES)	vapor or sublimation pressure (273.15 K)	vapor or sublimation pressure (293.15 K)	vapor or sublimation pressure (313.15 K)	vapor or sublimation pressure (333.15 K)	vapor or sublimation pressure (353.15 K)
FC(F)Cl [chlorodifluoromethane]	498 ± 3 kPa	911 ± 3 kPa	1529 ± 4 kPa	2426 ± 5 kPa	3664 ± 7 kPa
